The source of these data is ChEMBL document CHEMBL6074686 (Eur J Med Chem, 2025).

The source made the active and inactive calls. The calls are words filed in the database; no cut-off is given here.

One experiment relates to MCF7. The experiment can be described thus: Antitumor activity against human MCF7 cells assessed as reduction in cell viability incubated for 72 hrs by CCK8 assay. Format: functional, cell-based. Conditions: MCF7, 72 h.
Experiment [1] addresses T1, Tubulin (Homo sapiens) (UniProt P68371+Q9H4B7+P0DPH7+P68366+Q13509+Q71U36+P04350+Q3ZCM7+P07437+P68363+Q9BQE3+Q6PEY2+Q13885+Q9BVA1+Q9BUF5). Kind of experiment: Inhibition of tubulin polymerization in human SK-OV-3 cells at 20 nM incubated for 18 hrs by Alexa Fluor 488 staining based confocal immunofluorescent microscopic analysis. In kind it is cell-based.
Another experiment has as its system A549. The experiment can be described thus: Antitumor activity against human A549 cells assessed as reduction in cell viability incubated for 72 hrs by CCK8 assay. In kind it is functional, cell-based. The following applies: A549, 72 h.
Experiment [2] has as its system SK-OV-3. The experiment can be described thus: Antitumor activity against human SK-OV-3 cells xenografted in female BALB/c nude mouse assessed as tumor growth inhibition at 10 mg/kg, […] via tail vein once every 2 to 3 days. In kind it is functional. Conditions: time 2-3 day, read-out: TGI.
In experiment [3] the test system is SK-OV-3. Kind of experiment: Antitumor activity against human SK-OV-3 cells assessed as reduction in cell viability incubated for 72 hrs by CCK8 assay. Format: functional, cell-based. Conditions: SK-OV-3, 72 h.
For experiment [4], the target named is T1, Tubulin (Homo sapiens). The experiment can be described thus: Inhibition of tubulin polymerization (unknown origin) assessed as increase in optical density at 340 nm at 10 uM. In kind it is protein-complex assay.
A further experiment has as its system MDA-MB-231. Kind of experiment: Antitumor activity against human MDA-MB-231 cells assessed as reduction in cell viability incubated for 72 hrs by CCK8 assay. The following applies: MDA-MB-231, 72 h.

With `CC(=O)O[C@H]1C(=O)[C@@]2(C)[C@H]([C@H](OC(=O)c3ccccc3)[C@]3(O)C[C@H](OC(=O)[C@H](O)[C@@H](NC(=O)c4ccccc4)c4ccccc4)C(C)=C1C3(C)C)[C@]1(OC(C)=O)CO[C@@H]1C[C@@H]2O` [PACLITAXEL], the figures for the IC50 in the experiment on MCF7, in the experiment with A549 and in the experiment on SK-OV-3 [3] were 30.9 nM, 1.7 nM and 11.6 nM, respectively. In addition, at Tubulin (Homo sapiens) [1], the inhibition entry was “Not active; Aggregated Into Bundle Like Filamentary Structure”. Further, the inhibition in vivo at 10 mg/kg in the experiment with SK-OV-3 [2] worked out at 39.1%. Moreover, the inhibition entry on Tubulin (Homo sapiens) [4] was “Active”.

Regarding `COc1ccc2c(c1)CCCN2c1nc(Cl)nc2ccc(C(F)(F)F)cc12`, the IC50 with MCF7, in the experiment on MDA-MB-231, in the experiment with A549 and in the experiment with SK-OV-3 [3] was over 1000 nM in each case.

For `COc1ccc2c(c1)CCCN2c1nc(Cl)nc2ccc(Cl)cc12`, the 50% inhibitory concentration (IC50) in the experiment with MCF7 is 37.5 nM; in the experiment on MDA-MB-231, 24.7 nM; in the experiment with A549, 67 nM; with SK-OV-3 [3], 39.6 nM.

With `COCCNc1nc(N2CCCc3cc(OC)ccc32)c2cc(F)ccc2n1`, the 50% inhibitory concentration (IC50) was found to be 17.8 nM in the experiment on MCF7, 15.8 nM with MDA-MB-231, 22.8 nM in the experiment on A549 and 3.4 nM in the experiment with SK-OV-3 [3].

Take `CCNc1nc(N2CCCc3cc(OC)ccc32)c2cc(F)ccc2n1`: the IC50 in the experiment on MCF7 was 3.8 nM; with MDA-MB-231, 8.1 nM; with A549 it was 9.5 nM; in the experiment on SK-OV-3 [3] it was 4.9 nM.

In the case of `COc1ccc2c(c1)CCCN2c1nc(NC2CCCCC2)nc2ccc(F)cc12`, the IC50 in the experiment on MCF7, in the experiment on MDA-MB-231, with A549 and in the experiment on SK-OV-3 [3] was over 1000 nM throughout.

Regarding `COc1ccc2c(c1)CCCN2c1nc(NC2CCC2)nc2ccc(F)cc12`, the IC50 is 23.8 nM in the experiment on MCF7, 36.2 nM with MDA-MB-231, 51.3 nM in the experiment with A549 and 31.3 nM with SK-OV-3 [3].

Regarding `COc1ccc2c(c1)CCCN2c1nc(NCC(C)C)nc2ccc(F)cc12`, the half-maximal inhibitory concentration (IC50) with MCF7 was 553 nM; in the experiment on MDA-MB-231, 330 nM; in the experiment with A549, 440 nM; in the experiment on SK-OV-3 [3], 157 nM.

Consider `COc1ccc2c(c1)CCCN2c1nc(N2CCOCC2)nc2ccc(F)cc12`, for which the 50% inhibitory concentration (IC50) in the experiment with MCF7 was 60.4 nM; in the experiment with MDA-MB-231, 57.5 nM; in the experiment on A549 it was 53.2 nM; in the experiment with SK-OV-3 [3] it was 31.6 nM.

With `COc1ccc2c(c1)CCCN2c1nc(NC(C)C)nc2ccc(F)cc12`, the IC50 in the experiment on MCF7 amounted to 15.1 nM; with MDA-MB-231, 25 nM; with A549, 45.7 nM; with SK-OV-3 [3] it was 22.3 nM.

On to `CCCCNc1nc(N2CCCc3cc(OC)ccc32)c2cc(F)ccc2n1`, for which the concentration for half-maximal inhibition (IC50) in the experiment on MCF7 was determined as 47.1 nM; with MDA-MB-231 it was 61.1 nM; in the experiment with A549, 69.2 nM; with SK-OV-3 [3], 26 nM.

Turning to `COc1ccc2c(c1)CCCN2c1nc(N(C)C)nc2ccc(F)cc12`, the 50% inhibitory concentration (IC50) is 35.3 nM with MCF7, 45.5 nM in the experiment with MDA-MB-231, 64.4 nM in the experiment on A549 and 44.5 nM with SK-OV-3 [3].

For the molecule `COc1ccc2c(c1)CCCN2c1nc(Cl)nc2ccc(C)cc12`, the concentration for half-maximal inhibition (IC50) in the experiment with MCF7 stood at 45.7 nM; with MDA-MB-231, 37.1 nM; in the experiment on A549, 29.7 nM; in the experiment on SK-OV-3 [3], 38.1 nM.

For the molecule `COc1ccc2c(c1)CCCN2c1nc(Cl)nc2ccc(Br)cc12`, the IC50 is 67.5 nM in the experiment on MCF7, 66.5 nM in the experiment on MDA-MB-231, 15.2 nM with A549 and 63.1 nM in the experiment on SK-OV-3 [3].

Consider `COc1ccc(Nc2nc(N3CCCc4cc(OC)ccc43)c3cc(F)ccc3n2)cc1`, for which the IC50 in the experiment with MCF7, in the experiment on MDA-MB-231, with A549 and in the experiment with SK-OV-3 [3] was over 1000 nM throughout.

On to `COCCCNc1nc(N2CCCc3cc(OC)ccc32)c2cc(F)ccc2n1`, for which the IC50 with MCF7 was determined as 28 nM; in the experiment on MDA-MB-231 it was 39.7 nM; with A549, 33.1 nM; in the experiment on SK-OV-3 [3], 18.9 nM.

Turning to `COc1ccc2c(c1)CCCN2c1nc(Cl)nc2ccc(F)cc12`, the IC50 is 24.6 nM in the experiment on MCF7, 36.7 nM in the experiment on MDA-MB-231, 29.8 nM with A549 and 22.2 nM with SK-OV-3 [3].

`COc1ccc2c(c1)CCCN2c1nc(NCCN(C)C)nc2ccc(F)cc12`: the IC50 in the experiment with MCF7, in the experiment on MDA-MB-231, in the experiment with A549 and in the experiment with SK-OV-3 [3] was over 1000 nM throughout.

`COc1ccc2c(c1)CCCN2c1nc(N)nc2ccc(F)cc12`: the IC50 in the experiment with MCF7 was 6 nM; in the experiment with MDA-MB-231, 7.1 nM; in the experiment on A549 it was 7.2 nM; in the experiment with SK-OV-3 [3], 4.4 nM.

Consider `CCN(CC)c1nc(N2CCCc3cc(OC)ccc32)c2cc(F)ccc2n1`, for which the half-inhibitory concentration (IC50) in the experiment on MCF7 is 714 nM; in the experiment with MDA-MB-231, 900 nM; in the experiment with A549 it was over 1000 nM; in the experiment with SK-OV-3 [3], 471 nM.

Consider `COc1ccc2c(c1)CCCN2c1nc(Cl)nc2ccc(OC(F)(F)F)cc12`, for which the IC50 in the experiment with MCF7, with MDA-MB-231, with A549 and in the experiment with SK-OV-3 [3] was over 1000 nM in each case.

As to `COc1ccc2c(c1)CCCN2c1nc(-c2cc(OC)c(OC)c(OC)c2)nc2ccc(F)cc12`, the 50% inhibitory concentration (IC50) with MCF7, with MDA-MB-231, in the experiment on A549 and with SK-OV-3 [3] was over 1000 nM each time.

Consider `COc1ccc2c(c1)CCCN2c1nc(NC2CC2)nc2ccc(F)cc12`, for which the half-maximal inhibitory concentration (IC50) worked out at 2.4 nM in the experiment with MCF7, 11.5 nM with MDA-MB-231, 7.5 nM with A549 and 1.5 nM in the experiment with SK-OV-3 [3].

Consider `COc1ccc2c(c1)CCCN2c1nc(NCc2ccccc2)nc2ccc(F)cc12`, for which the half-inhibitory concentration (IC50) with MCF7, with MDA-MB-231, with A549 and in the experiment on SK-OV-3 [3] was over 1000 nM throughout.

Regarding `COc1ccc2c(c1)CCCN2c1nc(NC2CCCC2)nc2ccc(F)cc12`, the IC50 in the experiment with MCF7, with MDA-MB-231, in the experiment with A549 and in the experiment with SK-OV-3 [3] was over 1000 nM in each case.

Consider `COc1ccc2c(c1)CCCN2c1nc(N2CCCCC2)nc2ccc(F)cc12`, for which the IC50 with MCF7, in the experiment with MDA-MB-231, in the experiment with A549 and in the experiment with SK-OV-3 [3] was over 1000 nM throughout.

With `COc1ccc2c(c1)CCCN2c1nc(N2CCN(C)CC2)nc2ccc(F)cc12`, the concentration for half-maximal inhibition (IC50) in the experiment with MCF7, in the experiment on MDA-MB-231, in the experiment on A549 and with SK-OV-3 [3] was over 1000 nM in each case.

As to `CCCNc1nc(N2CCCc3cc(OC)ccc32)c2cc(F)ccc2n1`, the 50% inhibitory concentration (IC50) was 11.8 nM in the experiment with MCF7, 25.6 nM with MDA-MB-231, 19.3 nM in the experiment on A549 and 6.7 nM in the experiment with SK-OV-3 [3].

With `COc1ccc2c(c1)CCCN2c1nc(NCCOCCOCCO)nc2ccc(F)cc12`, the IC50 was 192 nM with MCF7, 136 nM in the experiment with MDA-MB-231, 90.9 nM in the experiment with A549 and 69.4 nM with SK-OV-3 [3].

As for `COc1ccc2c(c1)CCCN2c1nc(Cl)nc2ccc(I)cc12`, the half-maximal inhibitory concentration (IC50) in the experiment on MCF7 worked out at 547 nM; in the experiment on MDA-MB-231 it was 327 nM; in the experiment with A549, 315 nM; with SK-OV-3 [3] it was 160 nM.

Turning to `COc1ccc2c(c1)CCCN2c1nc(Cl)nc2ccc(OC)cc12`, the 50% inhibitory concentration (IC50) with MCF7 was 65.4 nM; in the experiment on MDA-MB-231 it was 65.3 nM; in the experiment with A549, 33.4 nM; with SK-OV-3 [3] it was 58 nM.

Take `COc1cc2c(c(OC)c1OC)-c1ccc(OC)c(=O)cc1[C@@H](NC(C)=O)CC2` [COLCHICINE]: the IC50 in the experiment with MDA-MB-231 worked out at 12.1 nM; in the experiment on A549, 31.4 nM; with SK-OV-3 [3], 6.3 nM.

As for `COc1ccc2c(c1)CCCN2c1nc(N2CCCC2)nc2ccc(F)cc12`, the IC50 in the experiment with MCF7, with MDA-MB-231, with A549 and in the experiment on SK-OV-3 [3] was over 1000 nM each time.

Regarding `COc1ccc2c(c1)CCCN2c1nc(NC(C)(C)C)nc2ccc(F)cc12`, the IC50 in the experiment with MCF7, in the experiment on MDA-MB-231, with A549 and with SK-OV-3 [3] was over 1000 nM throughout.

Take `COc1ccc2c(c1)CCCN2c1nc(NCCCO)nc2ccc(F)cc12`: the IC50 in the experiment with MCF7 was found to be 6 nM; in the experiment with MDA-MB-231, 9.3 nM; with A549, 12.7 nM; in the experiment on SK-OV-3 [3], 5.7 nM.

As for `COc1ccc(-c2nc(N3CCCc4cc(OC)ccc43)c3cc(F)ccc3n2)cc1`, the 50% inhibitory concentration (IC50) in the experiment on MCF7, in the experiment on MDA-MB-231, in the experiment on A549 and in the experiment with SK-OV-3 [3] was over 1000 nM throughout.
